Assay results: the NIST ThermoML archive (doi:10.1016/j.jct.2008.12.011)

Legend:
[1] = cn = amount concentration of the nth substance listed, in mol/dm3; settings: 101.3 kPa, Liquid, Vibrating tube method
[2] = mn = molality of the nth substance listed, in mol/kg; settings: 101 kPa, Liquid, Vibrating tube method

[Cl-].[K+] [potassium chloride] + O
mass density [kg/m3], [1]
Settings | c1 = 1 | c1 = 1.5 | c1 = 2 | c1 = 2.5 | c1 = 3 | c1 = 3.5 | c1 = 4
298.15 K | – | 1059.97 | – | 1104.2 | 1124.93 | 1145.56 | –
303.15 K | 1041.13 | 1058.12 | 1080.38 | 1102.19 | 1122.78 | 1143.35 | 1166.67
308.15 K | 1038.43 | 1055.31 | 1077.43 | 1099.06 | 1119.56 | 1140.06 | 1163.34
313.15 K | 1035.01 | 1051.75 | 1073.77 | 1095.37 | 1115.79 | 1136.18 | 1159.35
318.15 K | 1032.69 | 1049.38 | 1071.35 | 1092.9 | 1113.28 | 1133.63 | 1156.76
323.15 K | 1030.24 | 1047.03 | 1068.81 | 1090.34 | 1110.71 | 1131.02 | 1154.1

CC(=O)[O-].[K+] [potassium ethanoate] + O
mass density [kg/m3], [1]
Settings | c1 = 1 | c1 = 1.5 | c1 = 2 | c1 = 2.5 | c1 = 3 | c1 = 3.5 | c1 = 4
298.15 K | – | 1066.61 | – | 1108.88 | 1127.48 | 1148.72 | –
303.15 K | 1041.9 | 1064.76 | 1086.01 | 1106.89 | 1125.37 | 1146.49 | 1168.58
308.15 K | 1039.27 | 1062.94 | 1083.09 | 1103.93 | 1122.15 | 1143.14 | 1165.13
313.15 K | 1035.88 | 1059.39 | 1079.44 | 1100.19 | 1118.3 | 1139.19 | 1160.96
318.15 K | 1033.57 | 1057.02 | 1077.01 | 1097.66 | 1115.71 | 1136.58 | 1158.26
323.15 K | 1030.82 | 1054.37 | 1074.47 | 1095.05 | 1113.05 | 1133.87 | 1155.47

O=S(=O)(O)CC(O)CNC(CO)(CO)CO (configuration not stated) + O
mass density [kg/m3], [2]
Settings | 298.15 K | 303.15 K | 310.15 K | 318.15 K | 323.15 K | 328.15 K
m1 = 0.0629 | 1003.59 | 1002.16 | 999.78 | 996.62 | 994.41 | 992.05
m1 = 0.123 | 1009.62 | 1008.14 | 1005.72 | 1002.52 | 1000.3 | 997.92
m1 = 0.1921 | 1016.37 | 1014.86 | 1012.39 | 1009.15 | 1006.89 | 1004.5
m1 = 0.4659 | 1041.93 | 1040.26 | 1037.6 | 1034.18 | 1031.71 | 1028.8
m1 = 0.7644 | 1069.04 | 1066.83 | 1063.04 | 1059.95 | 1056.86 | 1054.93

[Cl-].[Na+] [sodium chloride] + O
mass density [kg/m3], [1]
Settings | c1 = 1 | c1 = 1.5 | c1 = 2 | c1 = 2.5 | c1 = 3 | c1 = 3.5 | c1 = 4
298.15 K | – | 1053.3 | – | 1088.97 | 1110.22 | 1124.82 | –
303.15 K | 1035.38 | 1055.01 | 1073.49 | 1086.83 | 1107.87 | 1122.4 | 1146.3
308.15 K | – | 1053.06 | 1070.4 | 1083.71 | 1104.62 | 1118.95 | 1142.7
313.15 K | 1029.13 | 1050.21 | 1066.6 | 1079.83 | 1100.67 | 1114.84 | 1138.45
318.15 K | 1026.75 | 1046.65 | 1064.11 | 1077.28 | 1098.06 | 1112.16 | 1135.7
323.15 K | 1023.15 | 1044.21 | 1061.5 | 1074.62 | 1095.35 | 1109.38 | 1132.89

O=S(=O)(O)CCCNC(CO)(CO)CO [3-[tris(hydroxymethyl)methylamino]-1-propanesulfonic acid] + O
mass density [kg/m3], [2]
Settings | m1 = 0.5011 | m1 = 0.8957 | m1 = 1.224 | m1 = 1.793 | m1 = 2.213 | m1 = 2.423 | m1 = 2.803
298.15 K | 1046.07 | 1064.95 | 1084.21 | 1117.87 | 1140.59 | 1152.07 | 1170.75
303.15 K | 1044.13 | 1062.96 | 1082.18 | 1115.68 | 1138.38 | 1149.81 | 1168.43
310.15 K | 1041.22 | 1059.95 | 1079.15 | 1112.62 | 1135.28 | 1146.62 | 1165.22
318.15 K | 1037.23 | 1055.92 | 1075.09 | 1108.55 | 1131.19 | 1142.49 | 1161.04
323.15 K | 1034.92 | 1053.59 | 1072.68 | 1106.08 | 1128.7 | 1139.98 | 1158.52
328.15 K | 1032.67 | 1051.25 | 1070.31 | 1103.67 | 1126.12 | 1137.32 | 1155.87

[Br-].[K+] [potassium bromide] + O
mass density [kg/m3], [1]
Settings | c1 = 1 | c1 = 1.5 | c1 = 2 | c1 = 2.5 | c1 = 3 | c1 = 3.5 | c1 = 4
298.15 K | – | 1119.52 | – | 1199.54 | 1239.34 | 1279.04 | –
303.15 K | 1078.68 | 1117.57 | 1160.04 | 1197.23 | 1236.89 | 1276.29 | 1320.56
308.15 K | 1075.81 | 1114.62 | 1156.73 | 1193.88 | 1233.52 | 1272.28 | 1316.47
313.15 K | 1072.09 | 1110.71 | 1152.65 | 1189.67 | 1229.2 | 1267.53 | 1311.63
318.15 K | 1066.6 | 1106.96 | 1149.76 | 1186.74 | 1226.19 | 1264.46 | 1308.52
323.15 K | 1063.02 | 1102.44 | 1144.45 | 1182.53 | 1222.18 | 1260.51 | 1305.31
